One test concerns P. aeruginosa PAO1. In words: Susceptibility Testing (MIC, broth microdilution). It counts as cell-based, Pseudomonas aeruginosa. Particulars: Pseudomonas aeruginosa, PAO1, 20 h, P. aeruginosa PAO1, broth microdilution, 20 hours; read-out: PAO1 MIC. The procedure:
Bacterial isolates were cultivated from −70° C. frozen stocks by two consecutive overnight passages at 35° C. in ambient air on 5% blood agar (Remel, Lenexa, Kans.). Quality control and P. aeruginosa ATCC 27853) is from the American Type Culture Collection (ATCC; Rockville, Md.) and PAO1 was received from Dr. K. Poole.
Minimal Inhibitory Concentrations (MICs) were determined by the broth microdilution method in accordance with Clinical and Laboratories Institute (CLSI) guidelines. In brief, fresh bacterial overnight cultures were resuspended in sterile saline, adjusted to a 0.5 McFarland turbidity standard and then diluted […] in cation adjusted Mueller-Hinton Broth II (MHB; Remel BBL) to yield a final inoculum of approximately 5×10^5 colony-forming units (CFU)/mL. Two-fold serial dilutions of compounds were prepared in 100% dimethyl sulfoxide (DMSO) at 100-fold the highest final assay concentration; the resulting dilution series of compounds were diluted 1:10 with sterile water. Ten μl of the drug dilution series in 10% DMSO was transferred to microtiter wells and 90 μl of bacterial suspension was inoculated into the wells. All inoculated microdilution trays were incubated in ambient air at […] for 20 hours. Following incubation, assay plates were read in a microtiter plate reader at 600 nm and visually inspected to confirm the MIC endpoint well with the OD value. The lowest concentration of the compound that prevented visible growth was recorded as the MIC. Performance of the assay was monitored by testing ciprofloxacin against laboratory quality control strains in accordance with guidelines of the CLSI.
(Broth dilution looks for growth in wells or tubes with falling amounts of substance.)

The target in another test is P. aeruginosa LpxC (Pseudomonas aeruginosa (strain ATCC 15692 / DSM 22644 / CIP 104116 / JCM 14847 / LMG 12228 / 1C / PRS 101 / PAO1), UniProt P47205). In words: P. aeruginosa LpxC Inhibition Assay. It counts as biochemical. Conditions: 2 μM substrate, LC-MS/MS. From the text: The P. aeruginosa LpxC protein is produced according to the general method of Hyland et al (Journal of Bacteriology 1997 179, 2029-2037: Cloning, expression and purification of UDP-3-O-acyl-GIcNAc deacetylase from Pseudomonas aeruginosa: a metalloamidase of the lipid A biosynthesis pathway). The LC-MS/MS method for quantitation of LpxC product was developed using an Agilent 1200 Capillary HPLC system coupled to an Applied Biosystems MDS Sciex 4000QTRAP mass spectrometer. Both instruments are controlled using the Applied Biosystems MDS Sciex Analyst software. LpxC reaction product (UDP-3-O—(R-3-hydroxyacyl)-glucosamine) was produced by hydrolysis of LpxC substrate catalyzed by P.a. LpxC and purified using reversed phase chromatography on a Phenomenex Luna C18(2) 4.6×50 mm column. An LpxC product calibration curve was generated to evaluate the sensitivity and dynamic range of the LC-MS/MS method. Briefly, compounds are pre-incubated with 1 nM P. aeruginosa LpxC for 30 min. at room temperature. Reactions are initiated by the addition of 2 μM UDP-3-O—(R-3-hydroxydecanoyl)-GIcNAc. Reactions are conducted in a 384-well plate with a total volume of 50 μL in each well containing 50 mM Sodium phosphate pH 7.5, 0.005% Trition X-100 for 20 min at room temperature. After quenching with 1.8% HOAc (5 μL of a 20% HOAc added to each well), reaction mixtures are analyzed using the LC-MS/MS method and peak areas are transformed into product concentration using a LpxC product calibration curve. Total activity (0% inhibition control) is obtained from reactions with no inhibitors and 100% inhibition control is the background using quenched samples before reaction starts. For IC50 determinations, peak areas are converted to percent inhibition in Microsoft Excel. Percent inhibition values are plotted vs. log compound concentration using XLfit. Data is fit to the four-parameter logistic equation using the non-linear regression algorithm in XLfit to return the IC50 and hill slope values.

Where [1] appears, read: 1 nM P. aeruginosa LpxC, read-out: PA LpxC IC50.

Converted amounts (≈) assume the structure as drawn. Like-named read-outs stand apart in the source and are kept apart here. Bounds are passed on as bounds.

As a reminder, the MIC is the smallest concentration in the dilution series that meets the test's criterion for growth inhibition. In general, IC50 refers to the midpoint of a concentration-inhibition curve.

For the compound `C[C@@](C[C@H]1CC(c2ccc(-c3ccc(-n4nccn4)cc3)cc2)=NO1)(C(=O)NO)S(C)(=O)=O` [Compound 77, (R)-3-((R)-3-(4′-(2H-1,2,3-triazol-2-yl)-[1,1′-biphenyl]-4-yl)-4,5-dihydroisoxazol-5-yl)-N-hydroxy-2-methyl-2-(methylsulfonyl)propanamide], the MIC in the test with P. aeruginosa PAO1 is 2 µg/mL (≈ 4.26 µM). Besides, at P. aeruginosa LpxC (setting [1]), the IC50 is below 0.5 nM.
`C[C@@](C[C@H]1CC(c2ccc(-c3ccc(OCCO)cc3)cc2)=NO1)(C(=O)NO)S(C)(=O)=O` [Compound 50, (R)—N-hydroxy-3-((R)-3-(4′-(2-hydroxyethoxy)-[1,1′-biphenyl]-4-yl)-4,5-dihydroisoxazol-5-yl)-2-methyl-2-(methylsulfonyl)]: the MIC in the test on P. aeruginosa PAO1 is 0.18 µg/mL (≈ 0.389 µM). Also, the IC50 on P. aeruginosa LpxC (setting [1]) came to 0.7 nM.
Taken in the same sequence, the figures for `C[C@@](C[C@H]1CC(c2ccc(-c3ccncc3F)cc2F)=NO1)(C(=O)NO)S(C)(=O)=O` [Compound 119, (R)-3-((R)-3-(2-fluoro-4-(3-fluoropyridin-4-yl)phenyl)-4,5-dihydroisoxazol-5-yl)-N-hydroxy-2-methyl-2-(methylsulfonyl)propanamide] were 0.71 µg/mL (≈ 1.62 µM) and below 0.5 nM.
Taken in the same sequence, the figures for `C[C@@](C[C@H]1CC(c2ccc(-c3ccc(S(C)(=N)=O)cc3)cc2)=NO1)(C(=O)NO)S(C)(=O)=O` (stereo partly drawn) [Compound 76, (2R)—N-hydroxy-2-methyl-3-((5R)-3-(4′-(S-methylsulfonimidoyl)-[1,1′-biphenyl]-4-yl)-4,5-dihydroisoxazol-5-yl)-2-(methylsulfonyl)propanamide] were 2 µg/mL (≈ 4.17 µM) and below 0.5 nM.
Taken in the same sequence, the figures for `C[C@@](C[C@H]1CC(c2ccc(-c3ccc(C(F)(F)F)nc3)cc2)=NO1)(C(=O)NO)S(C)(=O)=O` [Compound 64, (R)—N-hydroxy-2-methyl-2-(methylsulfonyl)-3-((R)-3-(4-(6-(trifluoromethyl)pyridin-3-yl)phenyl)-4,5-dihydroisoxazol-5-yl)propanamide] were 0.25 µg/mL (≈ 0.53 µM) and below 0.5 nM.
For the compound `CCCc1ccc(C2=NO[C@@H](C[C@](C)(C(=O)NO)S(C)(=O)=O)C2)cc1` [Compound 23, (R)—N-hydroxy-2-methyl-2-(methylsulfonyl)-3-((R)-3-(4-propylphenyl)-4,5-dihydroisoxazol-5-yl)propanamide], the MIC in the test on P. aeruginosa PAO1 was 0.5 µg/mL (≈ 1.36 µM). Also, on P. aeruginosa LpxC (setting [1]), the IC50 was below 0.5 nM.
Regarding `C[C@@](C[C@H]1CC(c2ccc(-c3ccc(CO)cc3)cc2)=NO1)(C(=O)NO)S(C)(=O)=O` [Compound 41, (R)—N-hydroxy-3-((R)-3-(4′-(hydroxymethyl)-[1,1′-biphenyl]-4-yl)-4,5-dihydroisoxazol-5-yl)-2-methyl-2-(methylsulfonyl)], in the test with P. aeruginosa PAO1, the minimal inhibitory concentration (MIC) was determined as 0.125 µg/mL (≈ 0.289 µM). The 50% inhibitory concentration (IC50) on P. aeruginosa LpxC (setting [1]) was found to be 0.5 nM.
Taken in the same sequence, the figures for `C[C@@](C[C@H]1CC(c2ccc(-c3ccncc3Cl)cc2)=NO1)(C(=O)NO)S(C)(=O)=O` [Compound 82, (R)-3-((R)-3-(4-(3-chloropyridin-4-yl)phenyl)-4,5-dihydroisoxazol-5-yl)-N-hydroxy-2-methyl-2-(methylsulfonyl)propanamide] were 0.35 µg/mL (≈ 0.799 µM) and below 0.5 nM.
Taken in the same sequence, the figures for `CC(CC1CC(c2ccc(Br)cc2)=NO1)(C(=O)NO)S(C)(=O)=O` (single isomer, unassigned) [Compound 1-B, 3-(3-(4-bromophenyl)-4,5-dihydroisoxazol-5-yl)-N-hydroxy-2-methyl-2-(methylsulfonyl)propanamide] were 1 µg/mL (≈ 2.47 µM) and below 0.5 nM.
Consider `C[C@@H](O)Cc1ccc(-c2ccc(C3=NO[C@@H](C[C@](C)(C(=O)NO)S(C)(=O)=O)C3)cc2)cc1` [Compound 45, (R)—N-hydroxy-3-((R)-3-(4′-((R)-2-hydroxypropyl)-[1,1′-biphenyl]-4-yl)-4,5-dihydroisoxazol-5-yl)-2-methyl-2-(methylsulfonyl)], for which, in the test on P. aeruginosa PAO1, the minimum inhibitory concentration (MIC) came out at 0.16 µg/mL (≈ 0.347 µM). Also, the IC50 on P. aeruginosa LpxC (setting [1]) was determined as 0.6 nM.
Taken in the same sequence, the figures for `C[C@@H](O)Cc1ccc(-c2ccc(C3=NO[C@@H](C[C@](C)(C(=O)NO)S(C)(=O)=O)C3)cc2F)c(F)c1` [Compound 115, (R)-3-((R)-3-(2,2′-difluoro-4′-((R)-2-hydroxypropyl)-[1,1′-biphenyl]-4-yl)-4,5-dihydroisoxazol-5-yl)-N-hydroxy-2-methyl-2-(methylsulfonyl)propanamide] were 1 µg/mL (≈ 2.01 µM) and below 0.5 nM.
On to `C[C@@](C[C@H]1CC(c2ccc(-c3ccncc3F)c(F)c2)=NO1)(C(=O)NO)S(C)(=O)=O` [Compound 117, (R)-3-((R)-3-(3-fluoro-4-(3-fluoropyridin-4-yl)phenyl)-4,5-dihydroisoxazol-5-yl)-N-hydroxy-2-methyl-2-(methylsulfonyl)propanamide], for which the MIC with P. aeruginosa PAO1 is 0.35 µg/mL (≈ 0.796 µM). For the same compound, the IC50 at P. aeruginosa LpxC (setting [1]) is below 0.5 nM.
Taken in the same sequence, the figures for `C[C@@](C[C@H]1CC(c2ccc(-c3ccc(CCO)cc3)cc2)=NO1)(C(=O)NO)S(C)(=O)=O` [Compound 40, (R)—N-hydroxy-3-((R)-3-(4′-(2-hydroxyethyl)-[1,1′-biphenyl]-4-yl)-4,5-dihydroisoxazol-5-yl)-2-methyl-2-(methylsulfonyl)] were 0.16 µg/mL (≈ 0.358 µM) and 0.5 nM.
Taken in the same sequence, the figures for `CCc1cc(-c2ccc(C3=NO[C@@H](C[C@](C)(C(=O)NO)S(C)(=O)=O)C3)cc2)ccn1` [Compound 71, (R)-3-((R)-3-(4-(2-ethylpyridin-4-yl)phenyl)-4,5-dihydroisoxazol-5-yl)-N-hydroxy-2-methyl-2-(methylsulfonyl)propanamide] were 0.71 µg/mL (≈ 1.65 µM) and 6 nM.
Taken in the same sequence, the figures for `CC(CC1CC(c2ccc(C3CC3)cc2)=NO1)(C(=O)NO)S(C)(=O)=O` (single isomer, unassigned) [Compound 5-A, 3-(3-(4-cyclopropylphenyl)-4,5-dihydroisoxazol-5-yl)-N-hydroxy-2-methyl-2-(methylsulfonyl)propanamide] were 2 µg/mL (≈ 5.46 µM) and 7 nM.
Regarding `C[S+]([O-])c1ccc(-c2ccc(C3=NO[C@@H](C[C@](C)(C(=O)NO)S(C)(=O)=O)C3)cc2)cc1` (stereo partly drawn) [Compound 74, (2R)—N-hydroxy-2-methyl-3-((5R)-3-(4′-(methylsulfinyl)-[1,1′-biphenyl]-4-yl)-4,5-dihydroisoxazol-5-yl)-2-(methylsulfonyl) propanamide], the MIC in the test with P. aeruginosa PAO1 worked out at 0.71 µg/mL (≈ 1.53 µM). On P. aeruginosa LpxC (setting [1]), the IC50 is below 0.5 nM.
As for `Cn1cc(-c2ccc(C3=NO[C@@H](C[C@](C)(C(=O)NO)S(C)(=O)=O)C3)cc2)ccc1=O` [Compound 68, (R)—N-hydroxy-2-methyl-3-((R)-3-(4-(1-methyl-6-oxo-1,6-dihydropyridin-3-yl)phenyl)-4,5-dihydroisoxazol-5-yl)-2-(methylsulfonyl)propanamide], the MIC in the test on P. aeruginosa PAO1 was 16 µg/mL (≈ 36.9 µM). This compound also came in with an IC50 on P. aeruginosa LpxC (PA LpxC IC50, 1 nM P. aeruginosa LpxC) of 2 nM.
Consider `C[C@@](C[C@H]1CC(c2ccc(-c3ccsc3)cc2)=NO1)(C(=O)NO)S(C)(=O)=O` [Compound 91, (R)—N-hydroxy-2-methyl-2-(methylsulfonyl)-3-((R)-3-(4-(thiophen-3-yl)phenyl)-4,5-dihydroisoxazol-5-yl)propanamide], for which the minimum inhibitory concentration (MIC) in the test with P. aeruginosa PAO1 turned out to be 0.125 µg/mL (≈ 0.306 µM). Moreover, the IC50 on P. aeruginosa LpxC (setting [1]) was below 0.5 nM.
Taken in the same sequence, the figures for `CC(C)(O)c1cc(-c2ccc(C3=NO[C@@H](C[C@](C)(C(=O)NO)S(C)(=O)=O)C3)cc2)ccn1` [Compound 81, (R)—N-hydroxy-3-((R)-3-(4-(2-(2-hydroxypropan-2-yl)pyridin-4-yl)phenyl)-4,5-dihydroisoxazol-5-yl)-2-methyl-2-(methylsulfonyl)propanamide] were 16 µg/mL (≈ 34.7 µM) and 2 nM.

Values taken from patent US9718792B2, “Isoxazoline hydroxamic acid derivatives as LpxC inhibitors” (priority 2014, dated 2017).
